Experimental data taken from patent US20260132125A1, “PESTICIDALLY ACTIVE FUSED BICYCLIC HETEROAROMATIC COMPOUNDS” (priority 2022, published 2026).

Columns and labels:
Assay type in all cases: in vivo
Diabrotica balteata = assay: Example B2: activity against Diabrotica balteata (corn root worm), maize sprouts; conditions: 96 h, L2 larvae, 4 days after infestation, read-out: effect in at least one of the two categories (mortality or growth inhibition)
Experimental: Maize sprouts placed onto an agar layer in 24-well microtiter plates were treated with aqueous test solutions prepared from 10′000 ppm DMSO stock solutions by spraying. After drying, the plates were infested with L2 larvae (6 to 10 per well). The samples were assessed for mortality and growth inhibition in comparison to untreated samples 4 days after infestation. The following compounds gave an effect of at least 80% in at least one of the two categories (mortality or growth inhibition) at an application rate of 200 ppm: P1, P2, P3, P4, P5, P7, P8, P9, P10, P11, P12, P13, P14, P15, P16, P17, P18, P19, P20, P21, P22, P23, P24, P25, P26, P27, P28, P29, P30, P31, P33, P34, P35, P36, P37, P38, P39, P40, P41, P42, P43, P45, P46, P47, P48, P49, P50, P51, P52, P53, P55, P57, P58, P59, P60, P61, P62, P63, P64, P65, P66, P67, P69, P71, P75, P81, P82, P83.

Myzus persicae = assay: Example B4: activity against Myzus persicae (green peach aphid), intrinsic activity; conditions: 120 h, test rate 12 ppm, 5 days after infestation
Experimental: Test compounds prepared from 10′000 ppm DMSO stock solutions were applied by pipette into 24-well microtiter plates and mixed with sucrose solution. The plates were closed with a stretched Parafilm. A plastic stencil with 24 holes was placed onto the plate and infested pea seedlings were placed directly on the Parafilm. The infested plate was closed with a gel blotting paper and another plastic stencil and then turned upside down. The samples were assessed for mortality 5 days after infestation.

Chilo suppressalis = assay: Example B1: activity against Chilo suppressalis (striped rice stemborer), artificial diet; conditions: 144 h, 200 ppm, L2 larvae, 6 days after infestation, read-out: control (at least one of mortality, anti-feedant effect, growth inhibition)
Experimental: 24-well microtiter plates with artificial diet were treated with aqueous test solutions prepared from 10′000 ppm DMSO stock solutions by pipetting. After drying, the plates were infested with L2 larvae (6-8 per well). The samples were assessed for mortality, anti-feeding effect, and growth inhibition in comparison to untreated samples 6 days after infestation. Control of Chilo suppressalis by a test sample is given when at least one of the categories mortality, anti-feedant effect, and growth inhibition is higher than the untreated sample.

Spodoptera littoralis = assay: Example B6: activity against Spodoptera littoralis (Egyptian cotton leaf worm), cotton leaf discs; conditions: foliar; for percent control (mortality, anti-feedant effect or growth inhibition) at 200 ppm: 72 h, L1 larvae, 3 days after infestation, read-out: control (at least one of mortality, anti-feedant effect, growth inhibition)
Experimental: Cotton leaf discs were placed onto agar in 24-well microtiter plates and sprayed with aqueous test solutions prepared from 10′000 ppm DMSO stock solutions. After drying the leaf discs were infested with five L1 larvae. The samples were assessed for mortality, anti-feeding effect, and growth inhibition in comparison to untreated samples 3 days after infestation. Control of Spodoptera littoralis by a test sample is given when at least one of the categories mortality, anti-feedant effect, and growth inhibition is higher than the untreated sample.

Pseudoplusia includens = assay: Example B9: Pseudoplusia includens (soybean looper), larvicide, feeding/contact, soybean plants; conditions: Chrysodeixis includens, 120 h; 50 ppm; L2 larvae; 5 days after infestation; read-out: effect in at least one of the two categories (mortality or growth inhibition)
Experimental: Soybean plants were treated in a spray chamber, cut off and placed into petri dishes containing wet filter paper. 1d after application leaves were infested with 5 L2 larvae and covered with a fabric filter and plastic lids. 5 days after infestation the samples were assessed for mortality and growth inhibition. The following compounds gave an effect of at least 80% in at least one of the two categories (mortality or growth inhibition) at an application rate of 50 ppm: […]

Plutella xylostella = assay: Example B5: activity against Plutella xylostella (diamond back moth), artificial diet, eggs; conditions: 192 h, 8 days after infestation, read-out: effect in at least one of the two categories (mortality or growth inhibition)
Experimental: 24-well microtiter plates with artificial diet were treated with aqueous test solutions prepared from 10′000 ppm DMSO stock solutions by pipetting. After drying, Plutella eggs were pipetted through a plastic stencil onto a gel blotting paper and the plate was closed with it. The samples were assessed for mortality and growth inhibition in comparison to untreated samples 8 days after infestation. The following compounds gave an effect of at least 80% in at least one of the two categories (mortality or growth inhibition) at an application rate of 200 ppm: P1, P2, P3, P4, P5, P6, P7, P8, P9, P10, P11, P12, P13, P14, P15, P16, P17, P18, P19, P20, P21, P22, P23, P24, P25, P26, P27, P28, P29, P30, P31, P32, P33, P34, P35, P36, P37, P38, P39, P40, P41, P42, P43, P44, P45, P46, P47, P48, P49, P50, P51, P52, P53, P54, P55, P57, P58, P59, P60, P61, P62, P63, P64, P65, P66, P67, P69, P70, P71, P72, P73, P74, P75, P77, P78, P81, P82, P83.

| Structure (SMILES) | percent effect (mortality or growth inhibition) at 200 ppm (Diabrotica balteata) [%] | mortality at 12 ppm (Myzus persicae) [%] | percent control (mortality, anti-feedant effect or growth inhibition) at 200 ppm (Chilo suppressalis) [%] | percent control (mortality, anti-feedant effect or growth inhibition) at 200 ppm (Spodoptera littoralis) [%] | percent effect (mortality or growth inhibition) at 50 ppm (Pseudoplusia includens) [%] | percent effect (mortality or growth inhibition) at 200 ppm (Plutella xylostella) [%] | mortality at 50 ppm (Spodoptera littoralis; 50 ppm) [%] |
| --- | --- | --- | --- | --- | --- | --- | --- |
| C[C@H](Nc1ncnc2c(C(F)(F)F)cc(Cl)cc12)c1ncnn1-c1ncc(C(N)=O)s1 [Compound P8] | ≥ 80 | ≥ 80 | ≥ 80 | ≥ 80 | ≥ 80 | ≥ 80 | – |
| C[C@H](Nc1ncnc2c(Cl)cc(I)cc12)c1ncnn1-c1ncc(C(N)=O)s1 [Compound P37, 2-[5-[(1S)-1-[(8-chloro-6-iodo-quinazolin-4-yl)amino]ethyl]-1,2,4-triazol-1-yl]thiazole-5-carboxamide] | ≥ 80 | ≥ 80 | ≥ 80 | ≥ 80 | – | ≥ 80 | 100 |
| C[C@H](Nc1ncnc2c(C(F)(F)F)cc(Cl)cc12)c1ncnn1-c1cc(C(=O)NCCC#N)ncn1 [Compound P39] | ≥ 80 | ≥ 80 | ≥ 80 | ≥ 80 | – | ≥ 80 | – |
| C[C@H](Nc1ncnc2c(I)cc(Cl)cc12)c1ncnn1-c1cc(C#N)ncn1 [Compound P40, 6-[5-[(1S)-1-[(6-chloro-8-iodo-quinazolin-4-yl)amino]ethyl]-1,2,4-triazol-1-yl]pyrimidine-4-carbonitrile] | ≥ 80 | ≥ 80 | ≥ 80 | ≥ 80 | – | ≥ 80 | – |
| C[C@H](Nc1ncnc2c(C(F)(F)F)cc(Cl)cc12)c1ncnn1-c1cc(C(=O)NC(C)(C)C#N)ncn1 [Compound P43, 6-[5-[(1S)-1-[[6-chloro-8-(trifluoromethyl)quinazolin-4-yl]amino]ethyl]-1,2,4-triazol-1-yl]-N-(1-cyano-1-methyl-ethyl)pyrimidine-4-carboxamide] | ≥ 80 | ≥ 80 | ≥ 80 | ≥ 80 | – | ≥ 80 | – |
| C[C@H](Nc1ncnc2c(C(F)(F)F)cc(Cl)cc12)c1ncnn1-c1cc(C(=O)N(C)O)ncn1 [Compound P46, 6-[5-[(1S)-1-[[6-chloro-8-(trifluoromethyl)quinazolin-4-yl]amino]ethyl]-1,2,4-triazol-1-yl]-N-hydroxy-N-methyl-pyrimidine-4-carboxamide] | ≥ 80 | ≥ 80 | ≥ 80 | ≥ 80 | – | ≥ 80 | – |
| C[C@@H](c1ncnn1-c1cc(C(N)=O)ncn1)N(C)c1ncnc2c(Cl)cc(I)cc12 [Compound P49, 6-[5-[(1S)-1-[(8-chloro-6-iodo-quinazolin-4-yl)-methyl-amino]ethyl]-1,2,4-triazol-1-yl]pyrimidine-4-carboxamide] | ≥ 80 | ≥ 80 | ≥ 80 | ≥ 80 | – | ≥ 80 | – |
| C[C@H](Nc1ncnc2c(I)cc(Cl)cc12)c1ncnn1-c1cc(C(=O)N(C)C)ncn1 [Compound P65, 6-[5-[(1S)-1-[(6-chloro-8-iodo-quinazolin-4-yl)amino]ethyl]-1,2,4-triazol-1-yl]-N,N-dimethyl-pyrimidine-4-carboxamide] | ≥ 80 | ≥ 80 | ≥ 80 | ≥ 80 | – | ≥ 80 | – |
| C[C@@H](c1ncnn1-c1cc(C(=O)N(C)C)ncn1)N(C)c1ncnc2c(I)cc(Cl)cc12 [Compound P66, 6-[5-[(1S)-1-[(6-chloro-8-iodo-quinazolin-4-yl)-methyl-amino]ethyl]-1,2,4-triazol-1-yl]-N,N-dimethyl-pyrimidine-4-carboxamide] | ≥ 80 | ≥ 80 | ≥ 80 | ≥ 80 | – | ≥ 80 | – |
| C[C@H](Nc1ncnc2c(Cl)cc(C(F)(F)F)cc12)c1ncnn1-c1cnc(C(=O)NCC#N)cn1 [Compound P69, 5-[5-[(1S)-1-[[8-chloro-6-(trifluoromethyl)quinazolin-4-yl]amino]ethyl]-1,2,4-triazol-1-yl]-N-(cyanomethyl)pyrazine-2-carboxamide] | ≥ 80 | ≥ 80 | ≥ 80 | ≥ 80 | – | ≥ 80 | – |
| C[C@@H](c1ncnn1-c1cc(C(=O)N(C)C2CC2)ncn1)N(C)c1ncnc2c(C(F)(F)F)cc(Cl)cc12 [Compound P81, 6-[5-[(1S)-1-[[6-chloro-8-(trifluoromethyl)quinazolin-4-yl]-methyl-amino]ethyl]-1,2,4-triazol-1-yl]-N-cyclopropyl-N-methyl-pyrimidine-4-carboxamide] | ≥ 80 | ≥ 80 | ≥ 80 | ≥ 80 | – | ≥ 80 | – |
| C[C@@H](c1ncnn1-c1cc(C(=O)N(C)CC2CC2)ncn1)N(C)c1ncnc2c(C(F)(F)F)cc(Cl)cc12 [Compound P83, 6-[5-[(1S)-1-[[6-chloro-8-(trifluoromethyl)quinazolin-4-yl]-methyl-amino]ethyl]-1,2,4-triazol-1-yl]-N-(cyclopropylmethyl)-N-methyl-pyrimidine-4-carboxamide] | ≥ 80 | ≥ 80 | ≥ 80 | ≥ 80 | – | ≥ 80 | – |
